“And” between values parts separate entries of the source, which are not always exact repeats. Equal entries are not always repeated. Toxic doses and inconclusive results are not listed.
Tested on: P388 leukemia ip, CD2F1 mice, survival T/C
Assay: NCI In Vivo Anticancer Drug Screen. Data for tumor model P388 Leukemia (intraperitoneal) in CD2F1 (CDF1) mice
Settings: endpoint: median survival time, higher = longer survival
Method in brief: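 Mice carrying the transplanted tumor received test compound or vehicle. Survival was recorded in each group, and the value is the treated-group measurement divided by that of the vehicle-treated control group.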

[1] = dose: 100.0 mg/kg/injection, schedule: Q01DX001 (ip), vehicle: saline with Tween-80
[2] = dose: 200.0 mg/kg/injection, schedule: Q01DX001 (ip), vehicle: saline with Tween-80
[3] = dose: 400.0 mg/kg/injection, schedule: Q01DX001 (ip), vehicle: saline with Tween-80
[4] = dose: 50.0 mg/kg/injection, schedule: Q01DX009 (ip), vehicle: Klucel (hydroxypropylcellulose) (HPC)

## C1=CC2(C=CC13OCCO3)OCCO2
dose: 25.0 mg/kg/injection, schedule: Q04DX003 (ip), vehicle: Klucel (hydroxypropylcellulose) (HPC)
  T/C: 107 % of control
dose: 50.0 mg/kg/injection, schedule: Q04DX003 (ip), vehicle: Klucel (hydroxypropylcellulose) (HPC)
  T/C: 99 % of control
dose: 100.0 mg/kg/injection, schedule: Q04DX003 (ip), vehicle: Klucel (hydroxypropylcellulose) (HPC)
  T/C: 103 % of control

## c1ccc2c(c1)[nH]c1c2c(N2CCOCC2)nn2nnnc12
[1]
  T/C: 107 % of control
[2]
  T/C: 106 % of control
[3]
  T/C: 109 % of control

## N#CC1(Nc2ccccc2)CCCC1
dose: 3.13 mg/kg/injection, schedule: Q01DX009 (ip), vehicle: Klucel (hydroxypropylcellulose) (HPC)
  T/C: 104 % of control
dose: 6.25 mg/kg/injection, schedule: Q01DX009 (ip), vehicle: Klucel (hydroxypropylcellulose) (HPC)
  T/C: 104 % of control and 92 % of control and 96 % of control
dose: 12.5 mg/kg/injection, schedule: Q01DX009 (ip), vehicle: Klucel (hydroxypropylcellulose) (HPC)
  T/C: 100 % of control and 90 % of control and 98 % of control
dose: 25.0 mg/kg/injection, schedule: Q01DX009 (ip), vehicle: Klucel (hydroxypropylcellulose) (HPC)
  T/C: 100 % of control and 96 % of control
[4]
  T/C: 104 % of control

## Cc1c(O)c2ccccc2c2c1sc(NCCO)[n+]2C
dose: 15.0 mg/kg/injection, schedule: Q01DX005 (ip), vehicle: saline with Tween-80
  T/C: 100 % of control
dose: 30.0 mg/kg/injection, schedule: Q01DX005 (ip), vehicle: saline with Tween-80
  T/C: 105 % of control
dose: 60.0 mg/kg/injection, schedule: Q01DX005 (ip), vehicle: saline with Tween-80
  T/C: 98 % of control and 99 % of control

## Cc1[nH]c2ccccc2c1-c1cc(-c2cc(-c3c(C)[nH]c4ccccc34)nc(N)n2)nc(N)n1
dose: 60.0 mg/kg/injection, schedule: Q01DX005 (ip), vehicle: Klucel (hydroxypropylcellulose) (HPC)
  T/C: 97 % of control
dose: 120.0 mg/kg/injection, schedule: Q01DX005 (ip), vehicle: Klucel (hydroxypropylcellulose) (HPC)
  T/C: 90 % of control

## CC#CCOCC(O)CO (centres undefined)
dose: 12.5 mg/kg/injection, schedule: Q01DX009 (ip), vehicle: water
  T/C: 105 % of control
dose: 25.0 mg/kg/injection, schedule: Q01DX009 (ip), vehicle: water
  T/C: 108 % of control
dose: 50.0 mg/kg/injection, schedule: Q01DX009 (ip), vehicle: water
  T/C: 121 % of control
dose: 67.0 mg/kg/injection, schedule: Q01DX009 (ip), vehicle: water
  T/C: 120 % of control

## COc1cc(C(=O)NNC(C)C)cc(OC)c1OC
dose: 50.0 mg/kg/injection, schedule: Q01DX005 (ip), vehicle: Klucel (hydroxypropylcellulose) (HPC)
  T/C: 104 % of control
dose: 100.0 mg/kg/injection, schedule: Q01DX005 (ip), vehicle: Klucel (hydroxypropylcellulose) (HPC)
  T/C: 100 % of control
dose: 200.0 mg/kg/injection, schedule: Q01DX005 (ip), vehicle: Klucel (hydroxypropylcellulose) (HPC)
  T/C: 107 % of control

## CCN(C(=S)Nc1cccc(C(F)(F)F)c1)c1ccccc1
[4]
  T/C: 101 % of control
dose: 100.0 mg/kg/injection, schedule: Q01DX009 (ip), vehicle: Klucel (hydroxypropylcellulose) (HPC)
  T/C: 108 % of control

## CNC(=S)OCCn1c([N+](=O)[O-])cnc1C
[1]
  T/C: 92 % of control
[2]
  T/C: 106 % of control
[3]
  T/C: 105 % of control

## CC(C)(C)/C(=N\Nc1ccc([N+](=O)[O-])cc1[N+](=O)[O-])c1ccccc1
dose: 3.13 mg/kg/injection, schedule: Q01DX001 (ip), vehicle: saline with Tween-80
  T/C: 91 % of control
dose: 6.25 mg/kg/injection, schedule: Q01DX001 (ip), vehicle: saline with Tween-80
  T/C: 116 % of control
dose: 12.5 mg/kg/injection, schedule: Q01DX001 (ip), vehicle: saline with Tween-80
  T/C: 95 % of control

## c1ccc2sc(NC(Nc3nc4ccccc4s3)C34CC5CC(CC(C5)C3)C4)nc2c1
dose: 12.5 mg/kg/injection, schedule: Q01DX009 (ip), vehicle: saline with Tween-80
  T/C: 98 % of control
dose: 25.0 mg/kg/injection, schedule: Q01DX009 (ip), vehicle: saline with Tween-80
  T/C: 98 % of control
dose: 50.0 mg/kg/injection, schedule: Q01DX009 (ip), vehicle: saline with Tween-80
  T/C: 91 % of control and 96 % of control

## Cc1cc(N=Nc2ccc(NC(=O)c3ccc([N+](=O)[O-])cc3)cc2C)ccc1N=Nc1ccc2cc(S(=O)(=O)O)cc(S(=O)(=O)O)c2c1
dose: 12.5 mg/kg/injection, schedule: Q01DX005 (ip), vehicle: saline with Tween-80
  T/C: 102 % of control and 107 % of control and 109 % of control
dose: 25.0 mg/kg/injection, schedule: Q01DX005 (ip), vehicle: saline with Tween-80
  T/C: 109 % of control and 111 % of control and 120 % of control
dose: 100.0 mg/kg/injection, schedule: Q01DX005 (ip), vehicle: saline with Tween-80
  T/C: 111 % of control

## CCC[CH2][Sn](=[S])[CH2]CCC
dose: 1.56 mg/kg/injection, schedule: Q01DX009 (ip), vehicle: other
  T/C: 116 % of control

## O=C1CN(CCCN2CCOCC2)CC(=O)N2Cc3ccccc3CN12
dose: 50.0 mg/kg/injection, schedule: Q01DX005 (ip), vehicle: saline
  T/C: 95 % of control
dose: 100.0 mg/kg/injection, schedule: Q01DX005 (ip), vehicle: saline
  T/C: 110 % of control
dose: 200.0 mg/kg/injection, schedule: Q01DX005 (ip), vehicle: saline
  T/C: 108 % of control

## O=C(NN(Cn1c(=S)sc2ccccc21)Cn1c(=S)sc2ccccc21)c1cccc([N+](=O)[O-])c1
dose: 100.0 mg/kg/injection, schedule: Q01DX001 (ip), vehicle: Klucel (hydroxypropylcellulose) (HPC)
  T/C: 93 % of control
dose: 200.0 mg/kg/injection, schedule: Q01DX001 (ip), vehicle: Klucel (hydroxypropylcellulose) (HPC)
  T/C: 92 % of control
dose: 400.0 mg/kg/injection, schedule: Q01DX001 (ip), vehicle: Klucel (hydroxypropylcellulose) (HPC)
  T/C: 113 % of control
